# Laboratory results taken from BindingDB's records for doi:10.1021/bi200552p (Astrazeneca Pharmaceuticals, 2011).
# Several values for one entry are separate records, joined by “and”; a condition that tells them apart may be missing. Identical values can stand only once.
# Biological target: T1, Fatty-acid amide hydrolase 1 (Homo sapiens, UniProt O00519)
# T1 sequence (O00519 whole entry): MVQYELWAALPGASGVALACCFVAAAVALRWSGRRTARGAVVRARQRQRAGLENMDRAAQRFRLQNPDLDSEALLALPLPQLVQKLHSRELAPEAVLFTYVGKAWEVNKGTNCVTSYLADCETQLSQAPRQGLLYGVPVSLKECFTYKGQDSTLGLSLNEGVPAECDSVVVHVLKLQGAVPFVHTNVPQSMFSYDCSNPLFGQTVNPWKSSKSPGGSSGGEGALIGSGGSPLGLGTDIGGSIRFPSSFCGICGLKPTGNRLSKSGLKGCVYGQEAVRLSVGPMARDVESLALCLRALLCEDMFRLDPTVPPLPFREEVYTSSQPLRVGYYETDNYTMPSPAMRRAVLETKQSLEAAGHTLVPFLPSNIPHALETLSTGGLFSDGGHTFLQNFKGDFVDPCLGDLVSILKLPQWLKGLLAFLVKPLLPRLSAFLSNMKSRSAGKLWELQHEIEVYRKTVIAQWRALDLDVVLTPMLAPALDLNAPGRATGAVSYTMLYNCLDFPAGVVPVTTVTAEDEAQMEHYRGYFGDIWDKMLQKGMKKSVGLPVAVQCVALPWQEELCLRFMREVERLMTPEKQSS
# Assay: Inhibition Assay
# Settings: pH 8; 22 °C
# Description: the enzyme activity of recombinant human FAAH was measured according to published procedures with minor modifications by either a fluorescent assay using D-AMC or a radioactive assay using tritium-labeled anandamide (3H-anandamide)51 as substrate.
smiles,measurement,value
"COc1cccc2sc(-c3ccc(NC(=O)C4CCN(S(=O)(=O)c5cccs5)CC4)cc3)nc12 [Benzothiazole-based analogue, 1]",IC50,2 nM and 2.1 nM and 2.3 nM and 2.5 nM and 5.1 nM and 3.8 nM
